Measurements as given in the NIST ThermoML archive (doi:10.1016/j.jct.2019.02.015).

How the values were obtained:
[1] = 101.33 kPa, Liquid; for speed of sound: Single path-length method; for mass density: Vibrating tube method
[2] = refractive index (Na D-line) (dimensionless); conditions: 101.33 kPa, Liquid, Standard Abbe refractometry
[3] = refractive index (Na D-line) (dimensionless); wn = mass fraction of the nth substance listed; conditions: 298.15 K, 100 kPa, Liquid, Standard Abbe refractometry
[4] = wn = mass fraction of the nth substance listed; conditions: 298.15 K, 100 kPa, Liquid; for viscosity: Falling or rolling sphere viscometry; for speed of sound: Frequency=3 MHz, Single path-length method; for mass density: Vibrating tube method

CCCCCCCC(=O)[O-].CCCCCC[NH+](CCCCCC)CCCCCC [trihexylammonium octanoate]
viscosity [mPa·s], [1]
Conditions	Cone and plate viscometry	Falling or rolling sphere viscometry
293.15 K	–	17.02
298.15 K	15.9	13.93
303.15 K	–	11.55
308.15 K	–	9.68
313.15 K	–	8.21
318.15 K	–	7.02
323.15 K	–	6.06
328.15 K	–	5.27
333.15 K	–	4.62
338.15 K	–	4.1
343.15 K	–	3.65

Conditions	mass density, [1] [kg/m3]	refractive index, [2]	speed of sound, [1] [m/s]
293.15 K	851.2	1.4459	1365.7
298.15 K	847.63	1.4441	1347.7
303.15 K	844.06	1.4419	1329.8
308.15 K	840.48	1.4399	1312.2
313.15 K	836.9	1.4381	1294.7
318.15 K	833.31	1.4359	1277.4
323.15 K	829.72	1.4341	1260.2
328.15 K	826.11	1.4322	1243.2
333.15 K	822.5	1.4299	1226.5
338.15 K	818.87	1.4278	1209.9
343.15 K	815.25	1.4258	1194

CCCCCCCC(=O)[O-].CCCCCCCC[NH+](CCCCCCCC)CCCCCCCC [trioctylammonium octanoate]
viscosity [mPa·s], [1]
Conditions	Cone and plate viscometry	Falling or rolling sphere viscometry
293.15 K	–	25.02
298.15 K	25.07	20.3
303.15 K	–	16.63
308.15 K	–	13.85
313.15 K	–	11.6
318.15 K	–	9.84
323.15 K	–	8.38
328.15 K	–	7.26
333.15 K	–	6.33
338.15 K	–	5.54
343.15 K	–	4.92

Conditions	mass density, [1] [kg/m3]	refractive index, [2]	speed of sound, [1] [m/s]
293.15 K	849.68	1.4505	1393.1
298.15 K	846.22	1.4484	1375.3
303.15 K	842.77	1.4464	1357.6
308.15 K	839.31	1.4447	1340.1
313.15 K	835.85	1.4426	1322.8
318.15 K	832.38	1.4406	1305.7
323.15 K	828.91	1.4389	1288.8
328.15 K	825.44	1.4369	1272
333.15 K	821.95	1.4348	1255.5
338.15 K	818.47	1.4329	1239.2
343.15 K	815.03	1.4309	1223.7

CCCC(=O)[O-].CCCCCC[NH+](CCCCCC)CCCCCC [trihexylammonium butanoate]
viscosity [mPa·s], [1]
Conditions	Cone and plate viscometry	Falling or rolling sphere viscometry
293.15 K	–	13.26
298.15 K	11.52	10.91
303.15 K	–	9.09
308.15 K	–	7.66
313.15 K	–	6.52
318.15 K	–	5.6
323.15 K	–	4.85
328.15 K	–	4.24
333.15 K	–	3.73
338.15 K	–	3.3
343.15 K	–	2.94

Conditions	mass density, [1] [kg/m3]	refractive index, [2]	speed of sound, [1] [m/s]
293.15 K	848.02	1.4419	1345
298.15 K	844.32	1.44	1326.7
303.15 K	840.63	1.438	1308.6
308.15 K	836.93	1.4361	1290.7
313.15 K	833.22	1.4342	1273
318.15 K	829.5	1.4322	1255.5
323.15 K	825.78	1.4302	1238.1
328.15 K	822.04	1.4282	1221
333.15 K	818.3	1.4262	1204
338.15 K	814.54	1.4241	1187.3
343.15 K	810.76	1.4221	1171.3

CCCC(=O)[O-].CCCCCCCC[NH+](CCCCCCCC)CCCCCCCC [trioctylammonium butanoate]
viscosity [mPa·s], [1]
Conditions	Cone and plate viscometry	Falling or rolling sphere viscometry
293.15 K	–	17.82
298.15 K	16.03	14.55
303.15 K	–	12.06
308.15 K	–	10.09
313.15 K	–	8.55
318.15 K	–	7.3
323.15 K	–	6.3
328.15 K	–	5.49
333.15 K	–	4.82
338.15 K	–	4.28
343.15 K	–	3.82

Conditions	mass density, [1] [kg/m3]	refractive index, [2]	speed of sound, [1] [m/s]
293.15 K	845.71	1.4474	1377.6
298.15 K	842.19	1.4456	1359.6
303.15 K	838.68	1.4437	1341.8
308.15 K	835.16	1.4417	1324.2
313.15 K	831.64	1.4395	1306.8
318.15 K	828.12	1.4376	1289.6
323.15 K	824.59	1.4356	1272.5
328.15 K	821.05	1.4339	1255.6
333.15 K	817.51	1.4319	1239
338.15 K	813.96	1.43	1222.5
343.15 K	810.41	1.428	1206.8

CCCCCC(=O)[O-].CCCCCCCC[NH+](CCCCCCCC)CCCCCCCC [trioctylammonium hexanoate] + O
Conditions	mass density, [4] [kg/m3]	refractive index, [3]	speed of sound, [4] [m/s]	viscosity, [4] [mPa·s]
w2 = 0.00078	844.54	1.4469	1366.2	16.72
w2 = 0.001285	844.88	–	1366.9	15.89
w2 = 0.001301	–	1.4465	–	–
w2 = 0.002315	845.44	–	1367.8	14.49
w2 = 0.002627	–	1.4458	–	–
w2 = 0.003049	–	1.4455	–	–
w2 = 0.003128	845.81	–	1368.8	13.68

CCCCCC(=O)[O-].CCCCCC[NH+](CCCCCC)CCCCCC [trihexylammonium hexanoate]
viscosity [mPa·s], [1]
Conditions	Cone and plate viscometry	Falling or rolling sphere viscometry
293.15 K	–	13.86
298.15 K	12.53	11.44
303.15 K	–	9.55
308.15 K	–	8.05
313.15 K	–	6.86
318.15 K	–	5.9
323.15 K	–	5.11
328.15 K	–	4.48
333.15 K	–	3.95
338.15 K	–	3.5
343.15 K	–	3.12

Conditions	mass density, [1] [kg/m3]	refractive index, [2]	speed of sound, [1] [m/s]
293.15 K	849.82	1.4432	1353.3
298.15 K	846.21	1.4412	1335.7
303.15 K	842.59	1.4395	1317.8
308.15 K	838.96	1.4375	1300.1
313.15 K	835.33	1.4355	1282.2
318.15 K	831.69	1.4336	1264.9
323.15 K	828.04	1.4315	1247.7
328.15 K	824.38	1.4297	1230.6
333.15 K	820.72	1.4278	1213.7
338.15 K	817.03	1.4258	1196.9
343.15 K	813.33	1.4238	1180.3

CCCCCC(=O)[O-].CCCCCCCC[NH+](CCCCCCCC)CCCCCCCC [trioctylammonium hexanoate]
viscosity [mPa·s], [1]
Conditions	Cone and plate viscometry	Falling or rolling sphere viscometry
293.15 K	–	20.58
298.15 K	20.59	16.72
303.15 K	–	13.76
308.15 K	–	11.47
313.15 K	–	9.64
318.15 K	–	8.19
323.15 K	–	7.04
328.15 K	–	6.09
333.15 K	–	5.32
338.15 K	–	4.67
343.15 K	–	4.14

Conditions	mass density, [1] [kg/m3]	refractive index, [2]	speed of sound, [1] [m/s]
293.15 K	848.02	1.4489	1384
298.15 K	844.54	1.4469	1366.2
303.15 K	841.06	1.4451	1348.5
308.15 K	837.58	1.4432	1331
313.15 K	834.1	1.4413	1313.8
318.15 K	830.61	1.4394	1296.6
323.15 K	827.12	1.4375	1279.7
328.15 K	823.62	1.4353	1262.9
333.15 K	820.12	1.4336	1246.4
338.15 K	816.62	1.4316	1230.1
343.15 K	813.12	1.4294	1214.5
